Assay results as given in article PMC6893898, “Receptor Interaction Profiles of 4-Alkoxy-Substituted 2,5-Dimethoxyphenethylamines and Related Amphetamines” (Frontiers in Pharmacology, 2019).

Legend:
human TAAR1 = biological target: T1, human TAAR1 (Homo sapiens, UniProt Q96RJ0); test: Activity at the human TAAR1 (cAMP, HEK 293 cells); type: cell-based; conditions: human TAAR1 EC50 ± SD
T1 construct: expressed in transfected cells; host or cells: HEK 293 (recombinant, Geneticin/hygromycin B selection)
T1 sequence (Q96RJ0 1-339): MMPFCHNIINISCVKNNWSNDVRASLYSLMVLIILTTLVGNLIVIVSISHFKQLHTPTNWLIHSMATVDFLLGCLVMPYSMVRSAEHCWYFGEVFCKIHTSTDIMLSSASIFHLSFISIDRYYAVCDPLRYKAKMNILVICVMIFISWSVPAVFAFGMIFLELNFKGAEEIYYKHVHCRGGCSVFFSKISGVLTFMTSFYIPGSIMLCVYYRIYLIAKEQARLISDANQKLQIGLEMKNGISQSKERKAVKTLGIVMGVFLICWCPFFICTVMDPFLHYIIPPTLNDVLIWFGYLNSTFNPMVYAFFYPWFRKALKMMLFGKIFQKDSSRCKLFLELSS
Procedure: Activity at the human TAAR1 was examined as previously described in full detail ([Luethi et al., 2018]). In summary, human TAAR1 expressing recombinant HEK 293 cells were grown in 250 ml falcon culture flasks containing 30 ml of high glucose DMEM (10% heat inactivated fetal calf serum, 500 µg/ml Geneticin [Gibco, Zug, Switzerland] and 500 µg/ml hygromycin B) at 37°C and 5% CO2/95% air. At 80-90% confluency, the cells were collected. The medium was aspirated, cells were washed with phosphate-buffered saline (PBS) and then trypsinized for 5 min at 37°C with 5 ml of trypsin/EDTA solution. Next, 45 ml of medium was added and the mixture was transferred into a falcon tube. After centrifugation (900 rpm, 3 min, RT), the supernatant was aspirated and the remaining cell pellet was resuspended in fresh medium to […]. Using a multipipette, 100 µl of cells were transferred (80,000 cells/well) into a 96-well plate (BIOCOAT 6640, Becton Dickinson, Allschwil, Switzerland) and incubated for 20 h at 37°C. For the cAMP assay, the medium was aspirated replaced with 50 µL PBS without Ca^2+ and Mg^2+ ions. The PBS was then extracted using snap inversion and the plate was softly tapped against tissue; 90 µL of Krebs-Ringer Bicarbonate buffer (Sigma-Aldrich) containing 1 mM IBMX was added and incubated for 60 min at 37°C and 5% CO2/95% air. A concentration range between 300 pM and 30 µM of test compounds was examined in duplicate. A standard curve with a range of cAMP concentrations (0.13 nM to 10 µM) was created per 96-well plate. Each experiment was accompanied with a reference plate that included three compounds; RO5256390, β-phenylethylamine, and p-tyramine. The cells were exposed to either 30 µl of compound solution, 30 µl of β-phenylethylamine (as maximal response), or a basal control in PBS (containing 1 mM IBMX) for 40 min at 37°C. Next, under forceful shaking using black lids, the cells were exposed to 50 µl of 3x detection mix solution (composed of Ru-cAMP Alexa700 anti-cAMP antibody and lysis buffer) for 120 min at room temperature in order to lyse the cells. Using the NanoScan reader (Innovative Optische Messtechnik, Berlin, Germany; 456 nm excitation wavelength; 630 and 700 nm emission wavelengths), the fluorescence was examined and the fluorescence resonance energy transfer (FRET) signal was determined using the following equation; FRET (700 nm) − P × FRET (630 nm), where P = Ru (700 nm)/Ru (630 nm). Receptor binding affinity at the human TAAR1 was not determined since unfortunately, there are no suitable radioligands available for this receptor.
Functional activity of the derivatives was only examined at the human TAAR1 and not at the mouse and rat TAAR1, because functional assays are not set up.

mouse TAAR1 = biological target: T2, mouse TAAR1 (Mus musculus, UniProt Q923Y8); test: Radioligand binding, mouse TAAR1 ([3H]RO5166017)
T2 construct: expressed in transfected cells; host or cells: HEK 293 (membrane preparation)

α1A adrenergic receptor = biological target: T3, α1A adrenergic receptor (Homo sapiens, UniProt P35348); test: Radioligand binding, α1A adrenergic receptor ([3H]prazosin)
T3 construct: expressed in transfected cells; host or cells: Chinese hamster ovary cell line (membrane preparation)
T3 sequence (P35348 1-466): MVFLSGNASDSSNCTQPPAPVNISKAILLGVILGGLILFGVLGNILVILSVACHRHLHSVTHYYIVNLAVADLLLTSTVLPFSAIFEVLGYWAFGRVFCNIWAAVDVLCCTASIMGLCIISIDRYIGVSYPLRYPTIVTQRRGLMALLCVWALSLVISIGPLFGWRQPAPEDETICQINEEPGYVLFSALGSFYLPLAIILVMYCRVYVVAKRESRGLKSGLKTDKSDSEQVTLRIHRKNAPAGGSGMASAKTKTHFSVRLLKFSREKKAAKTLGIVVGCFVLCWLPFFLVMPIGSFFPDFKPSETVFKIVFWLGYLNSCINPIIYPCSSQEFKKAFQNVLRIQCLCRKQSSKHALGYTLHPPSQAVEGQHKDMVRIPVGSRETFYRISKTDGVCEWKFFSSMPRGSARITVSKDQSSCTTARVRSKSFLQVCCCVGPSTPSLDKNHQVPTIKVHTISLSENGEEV

dopaminergic D2 receptor = biological target: T4, dopaminergic D2 receptor (Homo sapiens, UniProt P14416); test: Radioligand binding, dopaminergic D2 receptor ([3H]spiperone)
T4 construct: expressed in transfected cells; host or cells: HEK 293 (membrane preparation)
T4 sequence (P14416 whole entry): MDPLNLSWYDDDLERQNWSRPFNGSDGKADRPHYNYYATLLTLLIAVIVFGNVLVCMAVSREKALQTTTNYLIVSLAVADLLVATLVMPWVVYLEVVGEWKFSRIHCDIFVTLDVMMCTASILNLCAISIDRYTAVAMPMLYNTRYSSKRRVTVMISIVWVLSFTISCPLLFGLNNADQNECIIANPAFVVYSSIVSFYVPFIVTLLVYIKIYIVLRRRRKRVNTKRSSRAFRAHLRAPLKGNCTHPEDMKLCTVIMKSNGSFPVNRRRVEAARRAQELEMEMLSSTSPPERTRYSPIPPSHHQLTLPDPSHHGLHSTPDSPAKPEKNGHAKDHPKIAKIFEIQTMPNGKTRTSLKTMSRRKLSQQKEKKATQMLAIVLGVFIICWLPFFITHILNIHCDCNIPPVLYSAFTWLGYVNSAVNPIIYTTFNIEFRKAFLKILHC

T2 sequence (Q923Y8 whole entry): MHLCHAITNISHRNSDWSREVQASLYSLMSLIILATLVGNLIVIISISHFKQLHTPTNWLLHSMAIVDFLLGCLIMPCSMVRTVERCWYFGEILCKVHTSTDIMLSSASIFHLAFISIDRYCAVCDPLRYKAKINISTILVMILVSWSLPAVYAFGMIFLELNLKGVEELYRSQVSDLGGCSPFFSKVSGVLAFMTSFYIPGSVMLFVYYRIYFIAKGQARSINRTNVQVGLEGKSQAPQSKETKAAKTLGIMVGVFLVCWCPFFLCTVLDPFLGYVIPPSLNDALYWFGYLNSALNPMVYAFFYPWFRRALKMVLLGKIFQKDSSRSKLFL

Structure (SMILES): C=CCOc1cc(OC)c(CC(C)N)cc1OC (stereo not shown) [MALM, 4-allyloxy-2,5-dimethoxyamphetamine]
- EC50 (human TAAR1): > 30 µM
- Ki (mouse TAAR1): 2 ± 0.4 µM
- Ki (α1A adrenergic receptor): > 6.5 µM
- Ki (dopaminergic D2 receptor): > 4.4 µM

Structure (SMILES): COc1cc(OC(C)C)c(OC)cc1CC(C)N (stereo not shown) [MIPM, 2,5-dimethoxy-4-isopropoxyamphetamine]
- EC50 (human TAAR1): > 30 µM
- Ki (mouse TAAR1): > 4.8 µM
- Ki (α1A adrenergic receptor): > 6.5 µM
- Ki (dopaminergic D2 receptor): > 4.8 µM

Structure (SMILES): COc1cc(OCC(F)F)c(OC)cc1CCN [2C-O-21.5, 4-(2,2-difluoroethoxy)-2,5-dimethoxyphenethylamine]
- EC50 (human TAAR1): > 30 µM
- Ki (mouse TAAR1): > 4.8 µM
- Ki (α1A adrenergic receptor): > 6.5 µM
- Ki (dopaminergic D2 receptor): > 4.8 µM

Structure (SMILES): C=C(C)COc1cc(OC)c(CC(C)N)cc1OC (stereo not shown) [MMALM, 2,5-dimethoxy-4-methallyloxyamphetamine]
- EC50 (human TAAR1): > 30 µM
- Ki (mouse TAAR1): 1.7 ± 0.9 µM
- Ki (α1A adrenergic receptor): > 6.5 µM
- Ki (dopaminergic D2 receptor): > 4.8 µM

Structure (SMILES): COc1cc(OCC(F)F)c(OC)cc1CC(C)N (stereo not shown) [MDFEM, 4-(2,2-difluoroethoxy)-2,5-dimethoxyamphetamine]
- EC50 (human TAAR1): > 30 µM
- Ki (mouse TAAR1): > 4.8 µM
- Ki (α1A adrenergic receptor): > 6.5 µM
- Ki (dopaminergic D2 receptor): > 4.8 µM

Structure (SMILES): COc1cc(OCC(F)(F)F)c(OC)cc1CCN [2C-O-22, 2,5-dimethoxy-4-(2,2,2-trifluoroethoxy)phenethylamine]
- EC50 (human TAAR1): 3.6 ± 2.4 µM
- Ki (mouse TAAR1): 2.5 ± 0.4 µM
- Ki (α1A adrenergic receptor): > 6.5 µM
- Ki (dopaminergic D2 receptor): > 4.8 µM

Structure (SMILES): COc1cc(OCC(F)(F)F)c(OC)cc1CC(C)N (stereo not shown) [MTFEM, 2,5-dimethoxy-4-(2,2,2-trifluoroethoxy)amphetamine]
- EC50 (human TAAR1): > 30 µM
- Ki (mouse TAAR1): 4.5 ± 0.5 µM
- Ki (α1A adrenergic receptor): > 6.5 µM
- Ki (dopaminergic D2 receptor): > 4.8 µM

Structure (SMILES): COc1cc(OCCF)c(OC)cc1CCN [2C-O-21, 2,5-dimethoxy-4-(2-fluoroethoxy)phenethylamine]
- EC50 (human TAAR1): > 30 µM
- Ki (mouse TAAR1): > 4.9 µM
- Ki (α1A adrenergic receptor): > 6.5 µM
- Ki (dopaminergic D2 receptor): > 4.8 µM

Structure (SMILES): COc1cc(OCCF)c(OC)cc1CC(C)N (stereo not shown) [MFEM, 2,5-dimethoxy-4-(2-fluoroethoxy)amphetamine]
- EC50 (human TAAR1): > 30 µM
- Ki (mouse TAAR1): > 4.9 µM
- Ki (α1A adrenergic receptor): > 6.5 µM
- Ki (dopaminergic D2 receptor): > 4.8 µM

Structure (SMILES): COc1cc(OCc2ccccc2)c(OC)cc1CCN [2C-O-27, 4-benzyloxy-2,5-dimethoxyphenethylamine]
- EC50 (human TAAR1): > 30 µM
- Ki (mouse TAAR1): 0.65 ± 0.19 µM
- Ki (α1A adrenergic receptor): > 6.5 µM
- Ki (dopaminergic D2 receptor): > 4.8 µM

Structure (SMILES): C=CCOc1cc(OC)c(CCN)cc1OC [2C-O-16, 4-allyloxy-2,5-dimethoxyphenethylamine]
- EC50 (human TAAR1): > 30 µM
- Ki (mouse TAAR1): 2.5 ± 1 µM
- Ki (α1A adrenergic receptor): > 6.5 µM
- Ki (dopaminergic D2 receptor): > 4.8 µM

Structure (SMILES): C=C(C)COc1cc(OC)c(CCN)cc1OC [2C-O-3, 2,5-dimethoxy-4-methallyloxyphenethylamine]
- EC50 (human TAAR1): > 30 µM
- Ki (mouse TAAR1): 1.1 ± 0.4 µM
- Ki (α1A adrenergic receptor): > 6.5 µM
- Ki (dopaminergic D2 receptor): > 4.8 µM

Structure (SMILES): CCOc1cc(OC)c(CCN)cc1OC [2C-O-2, 2,5-dimethoxy-4-ethoxyphenethylamine]
- EC50 (human TAAR1): 9.6 ± 6.34 µM
- Ki (mouse TAAR1): 4 ± 1.1 µM
- Ki (α1A adrenergic receptor): > 6.5 µM
- Ki (dopaminergic D2 receptor): > 4.8 µM
